Read-outs that look alike come from different tables or passages of the source.
Key:
[1] = Study on in vivo pharmacokinetics in mice; settings: 10 mg/kg
Description: Example 6 Study on In Vivo Pharmacokinetics in Mice
Solutol HS15 was purchased from BASF, Germany, ethanol (anhydrous) was purchased from Nanjing Chemical Reagent Co., Ltd., physiological saline was purchased from Huayu (Wuxi) Pharmaceutical Co., Ltd., dimethyl sulfoxide (DMSO) and sodium carboxymethyl cellulose 800-1200 (CMC-Na) were purchased from Sinopharm Chemical Reagent Co., Ltd.
Preparation of ethanol/Solutol mixed solution (1:1, v/v): taking an appropriate amount of Solutol HS15 in a centrifuge tube and placing in a 37° C. water bath until dissolved, placing on the bench top to room temperature, taking 1 mL of Solutol in a centrifuge tube containing 1 mL of ethanol and mixing well to obtain the mixed solution.
Taking an appropriate amount of stock solution and placing in a blank centrifuge tube, adding an appropriate amount of ethanol/Solutol mixed solution prepared in advance, vortexing, then adding an appropriate amount of physiological saline, and mixing well until a transparent liquid.
3. Administration to Animals and Sample Collection:
Male ICR mice were purchased from Shanghai Lingchang Biotechnology Co., Ltd. 18 mice were randomly divided into intravenous administration group and intragastric administration group. The mice were fasted overnight before administration. The mice were withheld food but allowed to access water freely within 4 hours after administration, and allowed to freely access food and water after 4 hours. After anesthesia with isoflurane, blood was collected from the retroorbital venous plexus and placing in an centrifuge tube containing anticoagulant, and the centrifuge tube was stored in an box containing wet ice until the plasma was centrifuged.
The plasma samples were pre-treated and then analyzed by liquid chromatography-tandem mass spectrometry (LC-MS/MS), the instrument model was API5500. The analytical chromatographic column was Waters XSELECT HSS T3 C18 column (50×2.1 mm, 2.5 μm). In the mobile phases, deionized water containing 0.1% formic acid and 0.1% acetonitrile was used as the aqueous phase and acetonitrile containing 0.1% formic acid was used as the organic phase. The concentrations of the compound in the samples were determined as follows. Firstly, a standard curve was established, and the peak area ratios of the compound 19 to the internal standard in the standard curve were used as indexes. The theoretical concentrations of compound 19 and the peak area ratios of compound 19 to the internal standard were fitted with a quadratic regression equation to obtain the regression equation. The sample concentrations were calculated by measuring the peak area ratio of the compound of the test sample to the internal standard according to the standard curve.

[2] = test system: TMD8 subcutaneous xenograft (human diffuse large B-cell lymphoma cells); assay: In vivo efficacy in TMD8 subcutaneous xenograft model in nude mice; settings: for Number of animals with CR (Day 21): 8 animals per group; for Tumor volume (mm^3) ± SD Day 0: Day 0, before drug administration; for TGI (%) / Tumor volume (mm^3) ± SD Day 21: Day 21; for RBW (%) (Day 21): relative body weight; for Tumor growth inhibition (TGI %): oral gavage once a day, 21 days after treatment, vs vehicle control
Procedure: Example 7 Evaluation of In Vivo Efficacy of the Compound of the Present Invention in TMD8 Subcutaneous Xenograft Model
Objects: To investigate the anti-tumor activity of compound 19 in TMD8 subcutaneous xenograft model in nude mice.
Methods: Human diffuse large B-cell lymphoma cells TMD8 (acquired under license from Tokyo Medical and Dental University) were cultured in RPMI1640 medium containing 10% fetal bovine serum. 1×10^7 tumor cells suspended in RPMI1640 medium mixed well with Matrigel (purchased from Corning, USA) at 1:1 were implanted subcutaneously on the right flank of each male Balb/c nude mouse (Shanghai Lingchang Biotechnology Co., Ltd.), pretreated with cyclophosphamide (at a dose of 200 mg/kg, intraperitoneal injection 24 h before cell inoculation). […] All drugs were administered by oral gavage, once a day, and the vehicle control group was administered orally with 0.5% hydroxypropyl methylcellulose solution (pH=3).
Tumor volumes (tumor volume=0.5×long diameter×short diameter^2) and body weights of the mice were measured regularly. The tumor volume change and body weight were statistically analyzed, with p<0.05 considered statistically significant, and p<0.01 as extremely statistically significant.
The anti-tumor activity was evaluated by tumor growth inhibition. Tumor growth inhibition (TGI %)=100%×(1−(TVDt (treatment group)−TVD0 (treatment group))/(TVDt (control group)−TVD0 (control group))) Relative body weight (RBW %)=BWDt/BWD0×100%
wherein, TVD0 represents the tumor volume obtained at first measurement, namely, the tumor volume before drug administration, and TVDt represents the tumor volume on the day of measurement; BWD0 represents the body weight of the animal obtained at first measurement, namely, the body weight of the animal before drug administration; BWDt represents the body weight of the animal on the day of measurement.

[3] = test system: collagen induced arthritis in rats; assay: Rat arthritis model induced by type II collagen (CIA), paw volume; type: in vivo; settings: CIA Lewis rats
Procedure: Example 9 Therapeutic Effect of the Compound of the Present Invention on a Rat Arthritis Model Induced by Type II Collagen
An appropriate amount of bovine type II collagen (CII, Chondrex (Redmond, Wash., USA), Cat #20021) was weighed and dissolved in 0.1 mole of acetic acid (SPGC Sinopharm Chemical Reagent Co., Ltd (Shanghai, P. R. China), Cat #: 10000218.), which was formulated into a solution with a concentration of 6 mg/mL, stirred at 4° C. overnight, and added with an equal volume of Freund's incomplete adjuvant (Sigma-Aldrich. (St. Louis, Mo., USA), Cat #: SLBW0366.), fully emulsified to prepare an emulsion with a CII concentration of 3 mg/mL.
Female Lewis rats were purchased from Beijing Vital River Laboratory Animal Technology Co., Ltd (certificate number 1100111911070522, initial body weight of 110-130 grams), and 3 rats were randomly selected as normal group, and the remaining rats were grouped according to the following table. In the first immunization on day 0, the rats except that in the normal group were anesthetized with isoflurane (Hebei Yipin Pharmaceutical Co., Ltd., Lot: C002170601.), and then disinfected with 75% alcohol. 0.2 mL of emulsion was injected intradermally at the base of the tail thereof. A second challenge was carried out on day 7, and 0.2 mL of emulsion was intradermally injected using the same method.
The paw volume was measured on day 8 after immunization, and the left and right hind paw volumes (V) were measured every day after the paw volume increase was detected.
The average arthrosis paw volume of each animal before administration was used as the baseline (or considered 100% inhibition of inflammation). The averaged paw swelling (APS) of each animal is calculated according to the following formula, wherein, APVd1 is the average paw volume of the animal administered on day 1, and APVdt is the average paw volume of the animal administered on day t: The averaged paw swelling APSdt=(APVdt−APVd1)
ED50 is calculated by XLfit software according to the AUC inhibition ratio of the area under the curve of the average paw volume change. The selected model is “log (inhibitor) vs. response−Variable slope”: […]

[4] = male ICR mice, oral (intragastric) administration, plasma
[5] = male ICR mice, oral (intragastric) administration, plasma, 24 h
[6] = mouse, male ICR mice, oral (intragastric) administration, plasma
[7] = mouse, male ICR mice, oral (intragastric) administration, plasma, read-out: Cmax
[8] = 10 mg/kg oral gavage once a day
[9] = 30 mg/kg oral gavage once a day
[10] = oral QD, from AUC inhibition ratio of average paw volume change

SMILES | Cmax [1, 4] [ng/mL] | C24 h (plasma concentration at 24 h) [1, 5] [ng/mL] | AUC(0-inf) [1, 6] [ng·h/mL] | half-life [1, 6] [h] | Cmax [1, 7] [ng/mL] | Number of animals with CR (Day 21) [2, 8] | Tumor volume (mm^3) ± SD Day 0 [2, 8] [mm^3] | TGI (%) [2, 8] [%] | Tumor volume (mm^3) ± SD Day 21 [2, 8] [mm^3] | RBW (%) (Day 21) [2, 8] | Tumor growth inhibition (TGI %) ([2]; 10 mg/kg) [%] | inhibition ratio of area under the curve (paw swelling) ([3]; 4 mg/kg QD oral) [%] | also measured
C[C@H]1CN(C2COC2)CCN1c1ccc(Nc2cc(-c3ccnc(N4CCn5c(cc6c5CC(C)(C)C6)C4=O)c3CO)cn(C)c2=O)nc1 [GDC-0853, fenebrutinib, reference compound] | 4063 | <2.4 | 10300 | 1.5 | 4060 | 0 | 397 ± 46 | −12.8 | 3585 ± 494 | 115.5 | −12.8 | 87.1 | concentration at 8 h ([1]; mouse, male ICR mice, oral (intragastric) administration, plasma, 8 h, read-out: C8 h (plasma concentration at 8 h)): 143 ng/mL; concentration at 24 h ([1]; mouse, male ICR mice, oral (intragastric) administration, plasma, 24 h, read-out: C24 h (plasma concentration at 24 h)): < 2.4 ng/mL; paw volume compared with the vehicle control group ([3]; 4 mg/kg QD oral, p<0.01): significantly reduced
C[C@H]1CN(C2COC2)CCN1c1ccc(Nc2cc(-c3ccnc(-n4ccn5c6c(cc5c4=O)CC(C)(C)C6)c3CO)cn(C)c2=O)nc1 [Compound 19] | 3807 | 8.5 | 17800 | 2.7 | 3810 | 0 | 400 ± 41 | 76.5 | 1065 | 111.0 | 76.5 | 93.2 | C8 h (plasma concentration at 8 h) ([1]; male ICR mice, oral (intragastric) administration, plasma, 8 h): 555 ng/mL; plasma exposure (AUC0-∞) relative to the reference GDC-0853 ([1]; mice, oral administration): about 1.7 times; plasma concentration at 8 h relative to GDC-0853 ([1]; mice, oral administration, 8 h): about 3.9 folds; Number of animals with CR (Day 21) [2, 9]: 8; Tumor volume (mm^3) ± SD Day 0 [2, 9]: 396 ± 47 mm^3; TGI (%) [2, 9]: 114%; Tumor volume (mm^3) ± SD Day 21 [2, 9]: 0 mm^3; RBW (%) (Day 21) [2, 9]: 109.8%; Tumor growth inhibition (TGI %) ([2]; 30 mg/kg): 114%; mice with complete tumor regression (CR) ([2]; 30 mg/kg, oral once a day, Day 21, 8 animals per group): 8 mice; inhibition ratio of area under the curve (paw swelling) ([3]; 0.06 mg/kg QD oral): 58.8%; inhibition ratio of area under the curve (paw swelling) ([3]; 0.25 mg/kg QD oral): 91.3%; inhibition ratio of area under the curve (paw swelling) ([3]; 1 mg/kg QD oral): 95.9%; inhibition ratio of area under the curve (paw swelling) ([3]; 16 mg/kg QD oral): 97.5%; ED50 [3, 10]: < 0.06 mg/kg/day; ED90 [3, 10]: 0.26 mg/kg; minimum effective dose ([3]; oral QD, paw swelling): 0.06 mg/kg/day

From US11478474B2, “2-(3′-(hydroxymethyl)-1-methyl-5-((5-(2-methyl-4-(oxetan-3-yl)piperazin-1-yl)pyridin-2-yl)amino)-6-oxo-1,6-dihydro-[3,4′-bipyridin]-2′-yl)-7,7-dimethyl-7,8-dihydro-2H-cyclopenta[4,5]pyrrolo[1,2-a]pyrazin-1(6H)-one as a BTK inhibitor” (HUTCHISON MEDIPHARMA LIMITED, priority 2020, dated 2022)
